Consider six compounds from patent US10953029B2, “4′-Substituted nucleoside reverse transcriptase inhibitors and preparations thereof” (Merck Sharp & Dohme Corp., priority 2015, dated 2021).

Each structure is given as a SMILES string. pEC50, pIC50: −log10 of the molar value. Where two headings read alike, the source gives them in different places.

One data set concerns the target T1, HIV-1 RT enzyme (Human immunodeficiency virus type 1 group M subtype B, UniProt P04585).
T1 construct: Full-length wild-type and 2 mutant RT proteins were expressed in Escherichia coli BL21(DE3) cells and purified; made in house; host or cells: Escherichia coli BL21(DE3)
Nature of the data set: RT Polymerase Assay. Type of data set: biochemical. The protocol: Full-length wild-type and 2 mutant RT proteins were expressed in Escherichia coli BL21(DE3) cells and purified. Briefly, the heterodimeric nucleic acid substrate used in the HIV-1 RT polymerase reactions was generated by annealing biotinylated DNA primer to a 500 nucleotide RNA template. The HIV-1 RT enzyme (final concentration of 50 pM) was combined with an inhibitor compound or DMSO (10% DMSO in the final reaction mixture) in assay buffer (62.5 mM Tris-HCl, pH 7.8, 1.25 mM dithiothreitol, 7.5 mM MgCl2, 100 mM KCl, 0.03% CHAPS, 0.125 mM EGTA). This mixture was pre-incubated for 30 minutes at room temperature in microtiter plates. The polymerization reaction was initiated by the addition of template/primer substrate (final concentration: 16.6 nM) and dNTPs (final concentration: 2 μM dCTP, dGTP, dATP, and 66.6 nM Ru-dUTP). After 90 min of incubation at 37° C., reactions were quenched by the addition of EDTA (25 mM). The resulting mixture was incubated for an additional 5 minutes at room temperature followed by transferring the solution (50 μL) to blocked avidin plate from Meso Scale Discovery (MSD). The mixtures were incubated at room temperature for 60 min prior to the quantification of the reaction product via an ECL 6000 imager instrument.

For data set [1], the target named is T2, adenosine deaminase (ADA) type 1 (Homo sapiens, UniProt P00813).
T2 sequence (P00813 1-363): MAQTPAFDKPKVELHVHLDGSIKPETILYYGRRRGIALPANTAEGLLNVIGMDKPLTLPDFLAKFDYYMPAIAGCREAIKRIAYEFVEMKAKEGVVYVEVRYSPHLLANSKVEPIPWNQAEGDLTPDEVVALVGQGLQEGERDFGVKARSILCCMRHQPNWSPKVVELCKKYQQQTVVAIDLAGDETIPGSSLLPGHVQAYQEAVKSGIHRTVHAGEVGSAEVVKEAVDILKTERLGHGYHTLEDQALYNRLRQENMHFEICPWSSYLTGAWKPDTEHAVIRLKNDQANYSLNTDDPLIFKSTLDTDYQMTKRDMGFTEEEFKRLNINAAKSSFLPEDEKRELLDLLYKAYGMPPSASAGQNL
Nature of the data set: Adenosine Deaminase (ADA) Half-Life. Type of data set: in vitro ADME. The following applies: human ADA type 1 (adenosine deaminase) in Tris-HCl buffer, time for 50% conversion to inosine product, Tris-HCl buffer pH 7.5, 40° C., LCMS. The protocol: The data in Table 4 was generated by testing the reactivity of the substrate compound with human ADA type 1 in the presence of Tris-HCl buffer (pH 7.5) at 40° C. and monitoring by LCMS for consumption of starting material. The time necessary for 50% conversion to the corresponding inosine product is noted as the T1/2 in Table 4. It is known that deamination by adenosine deaminase decreases the therapeutic potential of adenosine-like nucleoside inhibitors especially in vivo (see references below). […] It is possible that compounds that are more resistant to ADA will have better pharmacokinetic properties.

The test system of another data set is HIV-1 (H9IIIB virus). Nature of the data set: Viking Assay: antiviral potency in a multiple round HIV-1 infection assay (MT4-GFP cells). The settings on record: Human immunodeficiency virus 1, 10% normal human serum, read-out: Viking, EC50 (10% NHS). The format is cell-based. How it is done:
Assessing antiviral potency in a multiple round HIV-1 infection assay. HIV-1 replication was monitored using MT4-gag-GFP clone D3 (hereafter designate MT4-GFP), which are MT-4 cells modified to harbor a GFP reporter gene, the expression of which is dependent on the HIV-1 expressed proteins tat and rev. Productive infection of an MT4-GFP cell with HIV-1 results in GFP expression approximately 24 h post-infection.
MT4-GFP cells were maintained at 37° C./5% CO2/90% relative humidity in RPMI 1640 supplemented with 10% fetal bovine serum, 100 U/mL penicillin/streptomycin, and 400 μg/mL G418 to maintain the reporter gene. For infections, MT4-GFP cells were placed in the same medium lacking G418 and infected overnight with H9IIIB virus at an approximate multiplicity of infection of 0.01 in the same incubation conditions. Cells were then washed and re-suspended in either RPMI 1640 containing 10% or 50% normal human serum at 1.6×10^5 cells/mL (10% or 50% NHS conditions) or in 100% normal human serum at 2×10^5 cells/mL (100% NHS conditions). […]
Infected cells were quantified at two time points, ˜48 h and ˜72 h post-infection, by counting the number of green cells in each well using an Acumen eX3 scanner. […] Inhibition of R0 is calculated for each well, and EC50s determined by non-linear 4-parameter curve fitting.

Data set [2] has as its system wild-type HIV-1-GFP virus. Nature of the data set: Antiviral Persistence in Human Peripheral Blood Mononuclear Cells (PBMC). The format is cell-based. The following applies: Human immunodeficiency virus 1, PBMC. How it is done: PBMCs were obtained from Biological Specialty Corporation, activated with 5 μg/ml PHA-P (Sigma L1668) for 72 hrs, and then washed with fresh medium. Following activation, PBMCs were cultured in media containing 10 IU/ml IL-2 (Roche 11011456001). Cells were treated with a titration of compound for 6 or 24 hrs and washed with fresh medium. To evaluate persistence of antiviral activity following wash-out, PBMCs were maintained for either 24 h or 72 h and then infected by adding wild-type HIV-1-GFP virus (17 μL/well) to the plates and incubating at 37° C./5% CO2/90% relative humidity. Infected cells were quantified at 24 h post-infection by counting the number of green cells in each well using an Acumen eX3 scanner. EC50 values in Table 3 were calculated by non-linear 4-parameter curve fitting.
The antiviral persistence assay is meant to assess for the persistence of antiviral activity upon removal of the nucleoside. […] The publication AIDS Research and Therapy, 2009, 6:5, highlights the value of antiviral persistence.

In data set [3] the test system is wild-type and multi-drug resistant HIV-1 strains. The settings on record: cited from earlier work.

As a reminder, the pIC50 is the negative decadic logarithm of the IC50, by convention in mol/L. Read a high pIC50 as a small IC50. Compound `C#C[C@]1(COP(=O)(O)OP(=O)(O)OP(=O)(O)O)O[C@@H](n2cc(F)c3c(N)nc(Cl)nc32)C[C@@H]1O` [Example 2, ammonium ((2R,3S,5R)-5-(4-amino-2-chloro-5-fluoro-7H-pyrrolo[2,3-d]pyrimidin-7-yl)-2-ethynyl-3-hydroxytetrahydrofuran-2-yl)methyl triphosphate] showed a pIC50 at HIV-1 RT enzyme of 6.31. For orientation: half-life means the time in which the quantity being followed falls by half. A lower half-life goes with fast loss. `Nc1ncnc2c1ncn2[C@H]1C[C@H](O)[C@@H](CO)O1` [Deoxy- adenosine, deoxyadenosine] returned a half-life in data set [1] of under 0.167 h.

As a reminder, the pEC50 is the EC50 on a negative log10 scale, so that one unit is a factor of ten. `Cc1cn([C@H]2C[C@H](N=[N+]=[N-])[C@@H](CO)O2)c(=O)[nH]c1=O` [AZT, 3′-azido-3′-deoxythymidine]: the pEC50 is 7.43 in the data set on HIV-1 (H9IIIB virus); 7.72 in data set [2] (24 h, read-out: EC50 24 h); 7.17 in data set [2] (72 h, read-out: EC50 72 h).

`C#C[C@]1(CO)O[C@@H](n2cc(F)c3c(N)nc(Cl)nc32)C[C@@H]1O` [Example 1, (2R,3S,5R)-5-(4-amino-2-chloro-5-fluoro-7H-pyrrolo[2,3-d]pyrimidin-7-yl)-2-ethynyl-2-(hydroxymethyl)tetrahydrofuran-3-ol] returned a half-life in data set [1] (value given as symbol) of over 240 h. Moreover, the pEC50 with HIV-1 (H9IIIB virus) was 8.92; in data set [2] (24 h, read-out: EC50 24 h), 9.42; in data set [2] (72 h, read-out: EC50 72 h), 8.42. As to `C#C[C@]1(CO)O[C@@H](n2cnc3c(N)nc(F)nc32)C[C@@H]1O` [EFdA, (2R,3S,5R)-5-(6-amino-2-fluoro-9H-purin-9-yl)-2-ethynyl-2-(hydroxymethyl)tetrahydrofuran-3-ol], the antiviral activity result in data set [3] was “potent antiviral activity”.

For the compound `C#C[C@]1(CO)O[C@@H](n2cnc3c(N)ncnc32)C[C@@H]1O` [EDA, (2R,3S,5R)-5-(6-amino-9H-purin-9-yl)-2-ethynyl-2-(hydroxymethyl)tetrahydrofuran-3-ol], the half-life in data set [1] is under 1 h.
